“Also recorded” adds a separate entry of the source.
Assays:
[1] = system: C6 glioma cells injected into the brains of rats; assay: Rat glioma (brain cancer) model, MRI; format: in vivo; conditions: Monday, Wednesday and Friday
Protocol: FIG. 9. SHetA2 inhibition of Angiogenesis. C6 glioma cells were injected into the brains of 2 rats. One week later, one rat was gavaged with 60 mg/kg/day SHetA2 on each Monday, Wednesday and Friday. Blood vessels were imaged by MRI.
FIG. 10. […] C6 glioma cells were injected into the brains of 2 rats. One week later, one rat was gavaged with 60 mg/kg/day SHetA2 on each Monday, Wednesday and Friday. The blood flow was measured by MRI imaging.
FIG. 11. SHetA2 inhibition of glioma tumor growth. C6 glioma cells were injected into the brains of 2 rats. One week later, one rat was gavaged with 60 mg/kg/day SHetA2 on each Monday, Wednesday and Friday. The tumor size was measured by MRI imaging.
In this in vivo model, glioma cells are injected into the brains of rats and the growth of the tumor and development of blood vessels in the tumor is measured by magnetic resonance imaging (MRI).

OVCAR-3 xenograft tumors = assay: Histochemical and immunohistochemical evaluation of xenograft tumors (glands, MUC-1, TUNEL); format: in vivo, mouse; conditions: 10 mg/kg/day by gavage; end of treatment; versus control
Excerpt: On the last day of treatment, the animals were sacrificed and then the tumors were removed, fixed in neutral buffered formalin and embedded in paraffin. Five micron sections of the paraffin-embedded tumors were stained with hematoxylin and eosin (H&E) for histologic evaluation, and with the TUNEL (terminal deoxynucleodidyl transferase-mediated biotin-deoxyuridine triphosphate nick) FragEL kit (Oncogene Research Products, Boston, Mass.) for evaluation of apoptosis according to manufacturers instructions. MUC-1 expression was detected in tumor sections using a mouse monoclonal antibody to human MUC-1 (Pharmingen, San Diego, Calif.) and the Histostain-Plus AEC Kit (Zymed Laboratories, San Francisco, Calif.) according to manufacturers instructions. Briefly, endogenous peroxidase activity in deparaffinized sections was quenched with 3% H2O2 in methanol and then sections were incubated in serum blocking solution, and subsequently in primary antibody, diluted 1:50 in phosphate buffered saline (PBS), overnight at 4° C. in a humid chamber. Sections were then washed with PBS, treated with biotinylated secondary antibody for 15 minutes, followed by enzyme conjugate for 10 minutes. […] Tumor sections were scored for number of glands (quantified in one H&E stained sections and 3 MUC-1-stained sections) and MUC-1 and TUNEL staining (based on staining intensity and percent positive cells). […]

[2] = RAID pharmacokinetic studies (35); cited from earlier work
[3] = system: ovarian carcinoma organotypic cultures; assay: Organotypic culture model of ovarian tumors; format: cell-based, human; conditions: 1 μM retinoid in media; 3, 7 or 14 days
Protocol: FIG. 17. Retinoid effects on ovarian carcinoma organotypic cultures. Organotypic cultures of OVCAR-3 (A, B, E, F, I and J), Caov-3 (C and G), SK-OV-3 (D and H), and O2 (K and L) were grown in the absence (−, top row and K) or presence (+, middle row and I, J and L) of retinoid HetA4 at a concentration of 1 μM in the media. All sections were stained with H&E except for I, which was stained with PAS to detect glycoproteins and glandular differentiantion, and J, which was stained with the TUNEL assay to detect apoptosis. All magnifications are 40×.
To test our hypotheses, we evaluated the effects of clinically achievable concentrations of 4-HPR and Flex-Hets on growth, differentiation and apoptosis in ovarian tissue. A series of compounds with a variety of receptor activation profiles were evaluated. In order to evaluate therapeutic effects, we developed an organotypic culture model of ovarian tumors by growing established cell lines and primary cultures inside collagen gels. Monolayer cultures of cells are not accurate representations of in vivo tissue because they lack the types of interactions that cells have with other cells and with the extracellular matrix in vivo. These interactions are known to influence gene expression and thus the constitution and behavior of cells. In our organotypic model, the growth of tumor cells inside the collagen allows a representation of tumors that have invaded stromal tissue. In the presence of fibroblasts, established cell lines and primary cultures of ovarian cancer formed colonies inside the collagen, while normal or benign ovarian epithelial cells remained as single cells inside the collagen. Human ovarian cancer cell lines (OVCAR-3, Caov-3, SK-OV-3, A2780, UCI 101) and primary human cultures (borderline ovarian tumor (O1), serous papillary tumor (O2), benign ovarian cyst (O3)) were cultured inside and on top of a collagen gel seeded with 3T3 fibroblasts for one week. After further incubation in the presence or absence of 1 μM retinoid (media concentration) for 3, 7 or 14 days, cultures were fixed and sectioned for immunohistochemical analysis.

[4] = system: blood vessel density in bFGF/VEGF-treated CAMs; assay: Chorioallantoic membrane (CAM) assay; format: in vivo, chick; conditions: 5 μM SHetA2; versus bFGF/VEGF-treated CAMs
Protocol: FIG. 8. Effect of 5 μM SHetA2 on blood vessel density in the CAM assay. The mean± SEM blood vessel density per treatment as compared to bFGF/VEGF-treated CAMs; *=p<0.05 and **=p<0.001 as compared to bFGF/VEGF-treated CAMs as determined by one-way ANOVA and Neuman-Keuls post-test.
The CAM assay that was used is based upon the original procedure by Jakob et al. (36) with modifications made by our laboratory (37, 38) (see FIG. 8).

[5] = system: EAhy.926 endothelial cells; assay: Growth/viability of endothelial cells versus ovarian cancer cell lines; format: cell-based; conditions: SHetA2 for 24 hours
Protocol: The graph on the left provides quantification of the endothelial branches for each treatment dose.
The increased thickness of the vessels at 1 μM and the increasing proportions of solitary clumps of cells at 5 and 10 μM indicate that SHetA2 is inhibiting endothelial cell migration. To determine if this anti-angiogenic activity was due to growth inhibition or cytotoxicity. The viability of the endothelial cells treated with SHetA2 for 24 hours was evaluated. […] This confirms the therapeutic ratio observed in previous studies.

[6] = oral 60 mg/kg/day, versus untreated control

SMILES: CC1(C)CC(C)(C)c2cc(NC(=S)Nc3ccc([N+](=O)[O-])cc3)ccc2S1 [SHetA2]
- blood flow (MRI) ([1]; gavage 60 mg/kg/day): inhibition of blood flow
- angiogenesis of glioma tumors (MRI) [1, 6]: inhibited
- growth of glioma tumors (MRI) [1, 6]: inhibited
- MUC-1 expression in xenograft tumors (OVCAR-3 xenograft tumors): increase staining for mucin-1 (MUC1) protein
- gland formation (numbers of glands) in xenograft tumors (OVCAR-3 xenograft tumors): greatest degree of gland induction
- concentrations achieved and maintained in mice [2]: micromolar concentrations
- induction of apoptosis (TUNEL) in organotypic cultures [3]: Apoptosis was induced; also recorded: highest level of apoptosis
- regulation of growth, differentiation and apoptosis, rank among eleven retinoids [3]: most potent regulator of growth, differentiation and apoptosis
- angiogenesis (blood vessel density) in CAM assay [4]: inhibits angiogenesis
- growth inhibition of endothelial cells compared with A2780 and OVCAR-3 [5]: much less growth inhibited

— patent publication US20060281806A1, “Treatment and inhibition of disease conditions using flexible heteroarotinoids” (priority 2005, published 2006)
